# Source: article PMC7226079, “Combining Virtual Screening Protocol and In Vitro Evaluation towards the Discovery of BACE1 Inhibitors” (Biomolecules, 2020)
# Where “and” joins values, the source holds several entries; their conditions need not be identical. Identical values can stand only once. Like-named read-outs stand apart in the source and are kept apart here. Peptide text beside a SMILES is read from it. * marks the point of attachment. Cbz = O=C(OCc1ccccc1)*
# How the values were obtained:
# [1] = biological target: T1, BACE1 (Homo sapiens, UniProt P56817); set-up: method as in ChEMBL23 [24]; settings: known BACE1 inhibitors of Training/Test sets; ref ChEMBL23 [24]; cited from earlier work
# T1 construct: purchased Sigma-Aldrich Co. LLC; CS0010
# [2] = biological target: T1, BACE1; assay: Cell-free FRET assay for BACE1 activity (β-Secretase (BACE1) Activity Detection Kit CS0010); type: biochemical; settings: for Average percent inhibition at 10 μM: Table S2, thirty-four in vitro tested compounds, mean of at least three independent experiments in triplicate
# [3] = 10 μM, mean of at least three independent experiments performed in triplicate, read-out: Average Percent Inhibition at 10 μM
# T1 sequence (P56817 46-501): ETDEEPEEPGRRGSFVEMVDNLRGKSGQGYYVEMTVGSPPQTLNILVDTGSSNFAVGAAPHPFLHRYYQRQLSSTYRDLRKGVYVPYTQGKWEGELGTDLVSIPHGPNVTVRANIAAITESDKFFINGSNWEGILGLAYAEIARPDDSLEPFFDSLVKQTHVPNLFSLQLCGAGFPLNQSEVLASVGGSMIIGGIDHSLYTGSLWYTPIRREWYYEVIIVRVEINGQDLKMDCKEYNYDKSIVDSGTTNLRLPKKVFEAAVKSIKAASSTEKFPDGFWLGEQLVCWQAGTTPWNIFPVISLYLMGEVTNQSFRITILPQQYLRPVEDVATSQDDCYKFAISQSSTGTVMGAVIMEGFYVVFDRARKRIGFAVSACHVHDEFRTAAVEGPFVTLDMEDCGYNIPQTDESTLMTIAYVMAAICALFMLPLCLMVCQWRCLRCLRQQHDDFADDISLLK
Structure (SMILES),IC50 [1],further results
CC1(C)OCC(N)=N[C@](C)(c2cc(NC3COc4cc(Cl)ccc43)ccc2F)C1(F)F (stereo partly shown) [ChEMBL3670919],320 nM,–
CCO[C@H]1CC[C@]2(CC1)Cc1ccc(-c3cccc(OC)c3)cc1C21N=C(N)N(C)C1=O (stereo partly shown) [ChEMBL3978126],15 nM,–
NC1=NC2(CO1)c1cc(-c3cc(Cl)cnc3F)ccc1OC1(CCC1)C21COC1 (stereo not shown) [ChEMBL3703272],827 nM,–
CC(=O)c1ccccc1OCC(O)CN1CCN(c2cccc(C(F)(F)F)c2)CC1 (stereo not shown) [NSC147843],–,Average percent inhibition at 10 μM ([2]; 10 μM): 9.6%
CC1=NC2(CC(C3CCOC(C)(C)C3)Oc3ccc(-c4cccc(Cl)c4)cc32)N=C1N (stereo not shown) [ChEMBL3653708],5 nM,–
CN1C(=O)CC2(N=C1N)c1cc(-c3cccnc3F)ccc1Oc1c2cc(-c2ccnc(F)c2)nc1F (stereo not shown) [ChEMBL3639946],2.4 nM,–
O=C(CCc1ccccc1)c1ccccc1OCC(O)CN1CCCCC1 (stereo not shown) [Compound 13],–,"inhibition at 10 µM [2, 3]: 34.7%"
O=C1c2ccccc2C(=O)c2c3c(cc(NCCNCCO)c21)N(CCO)CCN3 [Compound 20],–,"inhibition at 10 µM [2, 3]: 19.5%"
NC1=NC(c2ccccc2)(C2CCCCC2)C(=O)N1CCCCCC(=O)O (stereo not shown) [ChEMBL607527],950 nM,–
CC(=O)c1cccc(OCC(O)CN2CCN(c3ccc(C)cc3)CC2)c1 (stereo not shown) [NSC147852],–,Average percent inhibition at 10 μM ([2]; 10 μM): 10.6%
COC1CCC2(CC1)Cc1ccc(-c3cccc(C#N)c3)cc1C21N=C(N)c2ccccc21 (stereo not shown) [ChEMBL3673221],6 nM,–
COc1cc(F)c2c(c1)C1(N=C(N)n3ccnc31)c1cc(-c3cccnc3F)ccc1O2 (stereo not shown) [ChEMBL3677269],9 nM,–
NC1=N[C@@]2(c3cc(-c4cccnc4F)ccc3Oc3c(F)cc(N4CCOCC4)cc32)c2nccn21 [ChEMBL3677276],0.7 nM,–
CC#CCOc1cnc(C(=O)Nc2ccc(Cl)c(C3(C(F)F)N=C(N)OC4CC43)c2)cn1 (stereo not shown) [Compound 4],3.9 nM,–
O=C1c2ccccc2C(=O)c2c(NCCNCCO)ccc(NCCNCCO)c21 [NSC196473],–,inhibition at 10 µM ([2]; read-out: Average percent inhibition at 10 μM): 12.4%
O=C(Nc1cc(Br)ccc1N1CCNCC1)c1cccc2ccccc12 [ChEMBL203120],1000 nM,–
COc1ccc(C(=O)/C=C/c2cn(CC(O)CN3CCN(C)CC3)c3ccccc23)cc1 (stereo not shown) [Compound 11],–,"inhibition at 10 µM [2, 3]: 50.3%; IC50 ([2]; from the dose-response curve (Figure 8)): 15400 nM and 15000 nM"
NC1=NC(c2ccncc2)(c2cccc(-c3cncc(F)c3)c2)c2cccc(F)c21 (stereo not shown) [ChEMBL2177905],137 nM,–
"O=C1c2c(O)ccc(O)c2C(=O)c2c(NCCNCCO)ccc(NCCNCCO)c21 [Compound 17, mitoxantrone]",–,"inhibition at 10 µM [2, 3]: 22.6%"
"CC(CCc1ccc(O)cc1)NCCc1ccc(O)c(O)c1 (stereo not shown) [Compound 16, dobutamine]",–,"inhibition at 10 µM [2, 3]: 29.9%"
NC1=N[C@](CF)(c2cc(NC(=O)c3cc4ccccc4cn3)ccc2F)[C@H]2C[C@H]2O1 [ChEMBL3688633],500 nM,–
"CC(=O)[C@]1(O)Cc2c(O)c3c(c(O)c2[C@@H](O[C@H]2C[C@H](N)[C@H](O)[C@H](C)O2)C1)C(=O)c1ccccc1C3=O [Compound 21, idarubicin]",–,"inhibition at 10 µM [2, 3]: 18.1%"
CC1(c2cccc(NC(=O)c3ncc(Br)cn3)c2)COCC(N)=N1 (stereo not shown) [ChEMBL3653345],540 nM,–

Structure (SMILES),IC50 [1],further results
NC1=NC2(CO1)c1cc(NC(=O)c3ncc(Br)cn3)ccc1OCC21CC1 (stereo not shown) [ChEMBL3650820],661 nM,–
NC1=N[C@@]2(CCOC1)c1cc(-c3cccnc3F)ccc1Oc1cnc(-c3ccc(F)c(F)c3)cc12 [ChEMBL2152912],2 nM,–
COc1cc(C(O)C(O)c2cc(CN3CCOCC3)c(O)c(OC)c2)cc(CN2CCOCC2)c1O (stereo not shown) [NSC55229],–,Average percent inhibition at 10 μM ([2]; 10 μM): 12.1%
CCc1ccc2c(c1)C1(N=C(N)N(C)O1)[C@]1(CC[C@H](OC)CC1)C2 (stereo partly shown) [ChEMBL3656204],521 nM,–
O=C(NC(Cc1cnc[nH]1)C(=O)NC(Cc1ccc(O)cc1)C(=O)O)OCc1ccccc1 (stereo not drawn) [NSC333463] (Cbz-His-Tyr-OH; configuration not given here),–,Average percent inhibition at 10 μM ([2]; 10 μM): 13.4%
[C-]#[N+]c1ccc(C(=O)Nc2ccc(F)c([C@]34COC[C@@]3(F)CSC(N)=N4)c2)nc1 [ChEMBL3672943],6.6 nM,–
Cc1ccc(S(=O)(=O)Oc2ccc3oc4c(CO)ccc(NCCN(C)C)c4c(=O)c3c2)cc1 [Compound 19],–,"inhibition at 10 µM [2, 3]: 21.2%"
O=C(C[n+]1ccccc1)Nc1cccc(C(=O)Nc2ccc(Cl)cc2)c1 [ChEMBL1163225],1000 nM,–
CC(C)c1ccc(CO[C@H]2CN(S(=O)(=O)c3ccccc3)C[C@@H]2Nc2nc3cc(F)ccc3[nH]2)cc1 [ChEMBL3746896],480 nM,–
NC1=N[C@@]2(CO1)c1cc(-c3cccnc3F)ccc1Oc1c2cc(N2CCOCC2)nc1F [ChEMBL3394224],0.3 nM,–
O=C1c2ccccc2C(=O)c2c(NCCCNCCO)ccc(NCCCNCCO)c21 [NSC278467],–,Average percent inhibition at 10 μM ([2]; 10 μM): 17.0%
CCc1cn2c3c(cc(C(=O)N[C@@H](Cc4ccccc4)[C@H](O)CNC4CC4)cc13)N(CC)S(=O)(=O)CC2 [ChEMBL533064],20 nM,–
Cc1cc(C2(c3cccc(-c4cncnc4)c3)N=C(N)N(C)C2=O)ccn1 (stereo not shown) [ChEMBL598258],80 nM,–
CC(=O)c1ccc(OCC(O)CN2CCN(c3ccccc3)CC2)c(C)c1 (stereo not shown) [NSC147841],–,Average percent inhibition at 10 μM ([2]; 10 μM): 13.0%
CCN(CC)CCNc1ccc(CO)c2oc3ccccc3c(=O)c12 [Compound 18],–,"inhibition at 10 µM [2, 3]: 20.6%"
NC(Cc1ccccc1)C(=O)NCC(=O)NC(Cc1ccccc1)C(=O)NCC(=O)O (stereo not shown) [Compound 15] (H-FGFG-OH; configuration not given here),–,"inhibition at 10 µM [2, 3]: 30.7%"
CC(C)C[C@H](NC(=O)[C@@H](NC(=O)[C@@H](N)CNC(=O)c1nn[nH]n1)C(C)C)C(=O)N[C@@H](Cc1ccccc1)[C@@H](O)C(=O)Nc1cc(-c2nn[nH]n2)cc(-c2nn[nH]n2)c1 [ChEMBL439521],1.2 nM,–
CC(=O)Nc1ccc(N2C(=O)CC(NCc3ccc(Cl)cc3Cl)C2=O)cc1 (stereo not shown) [Compound 14],–,"inhibition at 10 µM [2, 3]: 31.3%"
N#CC(NCCCNC(C#N)c1ccccc1)c1ccccc1 (stereo not shown) [NSC81537],–,Average percent inhibition at 10 μM ([2]; 10 μM): 8.6%
Cc1cc(=O)oc2cc(OCC(O)CN3CCN(c4ccc(F)cc4)CC3)ccc12 (stereo not shown) [Compound 12],–,"inhibition at 10 µM [2, 3]: 33.5%"
CC(=O)c1ccccc1OCC(O)CN1CCN(c2ccccc2)CC1 (stereo not shown) [NSC147850],–,Average percent inhibition at 10 μM ([2]; 10 μM): 8.7%
CC1(C)N=C(N)N=C(N)N1c1cccc(OCCCOc2ccc(NC(=O)CBr)cc2)c1 [Compound 22],–,"inhibition at 10 µM [2, 3]: 18.1%"
